{
  "source": "paper PMC10671074",
  "about": "“Tumor Regression upon Intratumoral and Subcutaneous Dosing of the STING Agonist ALG-031048 in Mouse Efficacy Models” (International Journal of Molecular Sciences, 2023)",
  "key": {"plasma cytokines": {"test_system": "plasma cytokines", "test": "Plasma cytokine analysis in CT26-tumor-bearing mice", "assay_type": "in vivo, mouse", "conditions": "CT26-bearing BALB/c, one IT dose of 100 μg, 4 h after dosing", "protocol": "Plasma levels of IFN-α, IFN-β, IL-2, TNF-α, IL-6, IL-12, IP-10, IFN-γ, and MCP-1 (in pg/mL) were measured using the ProcartaPlex 9-Plex (ThermoFisher Scientific) according to the manufacturer’s instructions. Data were processed using Milliplex Analyst software version 5.1 on a MAGPIX instrument (Luminex Corp., Austin, TX, USA).\nFigure S5. Plasma cytokine levels in female BALB/c mice bearing SC CT26 tumors receiving one IT dose of 100 μg ADU‐S100 or ALG‐031048, at a mean TV of 116 mm3. Cytokine concentrations were analyzed 4 hours after dos ing. Only statistically significant differences (unpaired, parametric t test) are indicated by brackets.\n(also on this page, place not known: pg/ml pg/ml pg/ml pg/ml pg/ml pg/ml pg/ml pg/ml pg/ml dosing.) […]\n1 mg 4 mg Saline 25 g/kg S /kg SC\nFigure S8. Cytokine induction in CT26 tumor‐bearing mice upon SC administration of ALG‐031048.\n10 mice per group were treated with 3 doses 3 days apart. Plasma samples were collected 6 hours […]"}, "STING R232": {"biological_target": "STING R232 (Homo sapiens, UniProt Q86WV6, H232R)", "sequence (Q86WV6 whole entry H232R)": "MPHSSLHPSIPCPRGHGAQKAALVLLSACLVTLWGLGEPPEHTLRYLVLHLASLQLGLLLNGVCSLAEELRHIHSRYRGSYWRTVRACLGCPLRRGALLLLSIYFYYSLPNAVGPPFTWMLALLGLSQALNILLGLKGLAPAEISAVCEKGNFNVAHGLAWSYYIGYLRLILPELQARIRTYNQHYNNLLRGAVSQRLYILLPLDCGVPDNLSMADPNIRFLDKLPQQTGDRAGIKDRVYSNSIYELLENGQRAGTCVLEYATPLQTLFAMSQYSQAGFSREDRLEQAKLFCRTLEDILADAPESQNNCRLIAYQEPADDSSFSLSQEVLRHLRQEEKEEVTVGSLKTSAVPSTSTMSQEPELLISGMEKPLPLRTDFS", "test": "HEK 293 STING R232 IRF reporter assay", "assay_type": "cell-based", "parameters": "host or cells: 293T-Dual hSTING-R232 (HEK 293T derived)", "conditions": "HEK 293 STING R232 cells, digitonin dosing buffer 30 min, 20 h; mean±standard deviation; read-out: Reporter Cell Assay EC50, STING R232 IRF", "protocol": "Assays were set up after allowing cells to adhere for 48 h. Compounds dissolved in water were serially diluted in dosing buffer containing 10 µg/mL of digitonin (MP Biomedicals, Solon, OH, USA). Media were aspirated from the cells, and 50 µL of buffer with compound was added in triplicate. […] An aliquot of 100 µL of CellTiter-Glo® (Promega, Madison, WI, USA) was added to the original plate still containing the cells, and luminescence was determined to measure viability. All readouts were measured on an Envision plate reader from Perkin Elmer. Data were analyzed using GraphPad™ Prism’s version 8.0 [Agonist] vs. response—variable slope (four parameters) model."}},
  "data": [
    {"molecule": "CO[C@H]1[C@H]2OP(=O)(O)OC[C@@]34C[C@@H]3[C@@H](n3cnc5c(N)ncnc53)[C@H](O)[C@@H]4O[P@](=O)(S)OC[C@H]1O[C@H]2n1cnc2c(=O)[nH]c(N)nc21", "note": "[ALG-031048]", "values": [
      {"measurement": "Plasma cytokines after IT dosing", "setting": "plasma cytokines", "value": "increased cytokines such as IFN-α and -β, TNF-α, interleukin 6 (IL-6), MCP-1, and IP-10"},
      {"measurement": "EC50", "setting": "STING R232", "value": 0.029, "unit": "µM"}
    ]}
  ]
}
